# Source: ChEMBL document CHEMBL3507680, “University of Dundee, Gates Library screen for HepG2 cell viability”
# Experiment: Human HepG2 cell viability assay in 384 well format
# Assay type: toxicity, cell-based
# Set-up: dose 125 nL, time 70.5 hour; cytotoxicity at 70.5 h: concentration not given beside the values
# Conditions: HepG2 cells, read-out: Inhibition
row,SMILES,cytotoxicity at 70.5 h [%]
1,CCNC(=O)NCc1ccc(CN2CCCC(C)C2)cc1 (configuration not stated),-0.573
2,N#Cc1ccc(CN(CC(N)=O)C2CCCC2)cc1,-9.26
3,O=C(NC1CC1)[C@H]1CC[C@@H]2[C@@H](CCN2c2ncc(F)cn2)O1,-11.8
4,CN1CCCC1CNC(=O)CCOc1ccc(Br)cc1 (configuration not stated),2.76
5,CC(=O)N1CCO[C@H]2[C@H](OCCCn3cccn3)CC[C@@H]21,-3.12
6,c1cnc(N2C[C@H]3CCN(Cc4ccncc4)C[C@H]3C2)nc1,-7.09
7,Cc1cc(C)c2c(OCC(=O)NCC(O)C(F)(F)F)nn(C)c2n1 (configuration not stated),-15.2
8,COc1cc(I)c(Cl)cc1C(=O)N(C)CC(C)(C)O,21
9,OCc1csc(N2CCN(Cc3cccc(F)c3)CC2)n1,22.2
10,CN(Cc1nc(-c2ccoc2)no1)C1CCCN(c2cccnn2)C1 (configuration not stated),1.16
11,CC(C)CNC(=O)C1(Cc2ccccc2-c2ccccc2)CCNC1 (configuration not stated),-3.17
12,Nc1nc2c(c3c1C(=O)NC3=O)CCCC2,-9.66
13,Cc1cc2[nH]c(CN3CCOC(c4ccc(Cl)cc4)C3)cc(=O)n2n1 (configuration not stated),-2.79
14,Cc1cc(C)c2nc(CN3CCC(C#N)CC3)cc(O)c2c1,-1.43
15,CC(C)(C(=O)NCCS(N)(=O)=O)c1cccc(Br)c1,-6.85
16,O=C(NC1CC1)C1CN(c2nc3ccccc3s2)CCN1 (configuration not stated),-7.94
17,O=C(NCc1ccc(C(=O)N2CCCC2)cc1)c1cn2c(n1)CNCC2,-3.69
18,CC(C)(C)CNC[C@H]1Cn2ccnc2CO1,-4.98
19,Cc1cc(F)ccc1NCC(=O)NCC(F)(F)F,0.946
20,Cc1noc(CN(C)C2CCCN(Cc3noc(C4CC4)n3)C2)n1 (configuration not stated),-10.7
21,COc1ccc(NC(=O)CCC2CCCN(S(=O)(=O)C3CC3)C2)c(C)c1 (configuration not stated),-6.39
22,CC/C=C(/C)C(=O)NCc1ccc(OC)nc1,-13.3
23,Cc1nn(C)c(C)c1C1CCCN1C(=O)c1nccnc1N (configuration not stated),-8.84

row,SMILES,cytotoxicity at 70.5 h [%]
1,O=C(CC1CCCO1)NCCc1ccccc1Br (configuration not stated),-2.65
2,Cc1ccc(CN2C[C@@H]3COC[C@H](NS(C)(=O)=O)[C@@H]3C2)s1,-10.6
3,CN(Cc1cnn(C)c1)C(=O)NCCc1ccc2c(c1)OCO2,-1.01
4,Cn1cc(N2CCCC(NCc3cccc4c3OCCCO4)C2)cn1 (configuration not stated),-14.6
5,Cc1ccc(CN2CCN(c3nc4c(s3)c(C)nn4C)C(C)C2=O)cc1 (configuration not stated),31.2
6,CCOCC1C[C@@H]2OCCN(C(=O)c3ccc[nH]3)[C@H]2C1 (some centres not stated),-6.8
7,CC(C)Oc1ccccc1CNC(=O)c1[nH]ncc1Br,7
8,CC(C)c1ncncc1C(=O)N1CCN(Cc2ccsc2)CC1,-10.1
9,O=C(O)c1cccc(N2CCC(Oc3cccc(F)c3)CC2)n1,-7
10,CCNC(=O)[C@@H]1C[C@H](n2cc(CC3CCCCC3)nn2)CN1,-7.89
11,Cc1ccc(F)c(S(=O)(=O)NCCc2nnc[nH]2)c1,15.4
12,CCN1CCN(S(=O)(=O)c2ccc(Cc3cc(C)n[nH]c3=O)cc2)CC1,-10.8
13,CC(C)CCn1c(=O)n(CCn2cccc2)c2cc(C(=O)O)cnc21,-7.02
14,Cc1nn(-c2ccccc2Cl)c(C)c1CCC(=O)O,4.21
15,O=C1C(Nc2ccc3nccnc3n2)CCN1c1ccccc1F (configuration not stated),-9.82
16,CCOC(C)c1nc(CN2CCN(Cc3cccnc3)CC2)cs1 (configuration not stated),-4.18
17,COCCN1CCCC(O)(CN2CCCN(c3ncccn3)CC2)C1=O (configuration not stated),2.84
18,Cc1cnn(C2CCCN(C(=O)c3cccc4c3OCO4)C2)c1 (configuration not stated),-10.4
19,COCCN1C[C@H]2CC[C@@]3(N=C(C)N(CC4CC4)C3=O)[C@H]2C1,-2.1
20,CC(=O)N1CCCC1c1nc(C)no1 (configuration not stated),15.6
21,O=C(NCc1nncn1C1CC1)c1cccnc1Oc1ccccc1,-0.0708
22,c1cc(-c2nc(CN3CCc4c(ncn4C4CC4)C3)cs2)cs1,-8.75
23,COc1cc2cc(C(=O)O)n(C)c2c(OC)c1OC,-10.1

row,SMILES,cytotoxicity at 70.5 h [%]
1,Cc1nc(C)c2c(n1)CCN(Cc1nccn1C)CC2,-8.56
2,CCOc1cccc(NC(=O)c2cscn2)n1,-9.11
3,CN(c1ccc(C(=O)NCCCN2CCOCC2)c(Cl)c1)S(C)(=O)=O,-8.19
4,Cc1cc(CN(C)Cc2cnc3c(c2)c(C)nn3C)no1,8.45
5,CC(=O)N1CC[C@H]2[C@H](C[C@@H](CN3CCCC3)N2c2nccs2)C1,-7.72
6,O=C(NC[C@H]1OC[C@@H](NCc2ccccc2F)[C@@H]1O)c1ccc(F)cc1,-3.67
7,CC(NC(=O)NCC1(O)CCC1)c1ccc(OCC2CC2)c(F)c1 (configuration not stated),-12
8,COCC(=O)Nc1nn(Cc2ccc(F)cc2)cc1Cl,-5.91
9,NC[C@H]1CC[C@H](C(NC(=O)C2CC2)c2ccccn2)CC1 (some centres not stated),-6.56
10,CCCNC(=O)NCc1ccccc1NS(=O)(=O)c1ccccc1,-0.797
11,Cc1nc(CN2CCCC(N(C)Cc3cscn3)C2)no1 (configuration not stated),4.42
12,O=C(c1ccc(O)cn1)N1CCOC(c2ccc(Cl)c(Cl)c2)C1 (configuration not stated),-3.33
13,Cc1cc(CNC(=O)NCCCC(=O)N2CCc3ccccc32)no1,-2.16
14,O=C1N(CCc2ccccc2)CCCC12CCN(C(CO)CO)C2 (configuration not stated),-4.14
15,CC(C)=CCN1C[C@H]2CC[C@@H]1CN(Cc1cc(=O)[nH]c(=O)[nH]1)C2,-3.94
16,CN(C)C(=O)CN1C(=O)[C@H]2CC[C@@H]1CN(Cc1ccccc1C#N)C2,-4.2
17,O=C1[C@@H]2CCN(Cc3ccccn3)C[C@@H]2OCCN1c1ccccc1,-4.44
18,Cn1cc(C2CC(=O)NC23CCN(Cc2cccc(F)c2)CC3)cn1 (configuration not stated),-0.799
19,O=C(c1ccccc1)N1C[C@@H]2CC[C@H](C1)N(Cc1cc(F)ccc1Cl)C2,27
20,O=C(Cc1ccon1)Nc1cncc(Br)c1O,-0.318
21,CC(C)CNC(=O)N1C[C@H]2CC[C@@]3(N=C(c4ccccc4)NC3=O)[C@H]2C1,-0.00686
22,Cn1cc(CCCN2CCN(C(=O)c3cccc(O)c3)CC2)cn1,-3.56
23,O=C(c1ccc[nH]1)N1CCO[C@H]2CC(COCc3ccccn3)C[C@@H]21 (some centres not stated),2.76

row,SMILES,cytotoxicity at 70.5 h [%]
1,Cc1nn(C)c(C)c1C1SCC(=O)Nc2c1c(O)nn2C(C)C (configuration not stated),-28.8
2,Cc1cc2nc(-c3ccccc3)cc(NCC3CCCOC3)n2n1 (configuration not stated),0.476
3,CC(C)CCN1CC[C@H](c2nnc(Cc3c[nH]c4ccccc34)o2)C1,1.15
4,COc1ccc(Oc2cncc(C3CCCN3C(C)=O)n2)cc1 (configuration not stated),31.7
5,CN(C)c1nccnc1C1CCN(C2CCCCC2O)CC1 (configuration not stated),-8.92
6,O=C(NCCNc1ncccn1)C1CCN(C(=O)N2CCCC2)CC1,-12.3
7,CC(C)c1nn(C)c(N(C)C)c1CNCC(O)c1ccccc1 (configuration not stated),-10.1
8,CC(=O)N1CCCN(C(C)C(=O)Nc2ccnn2C(C)C)CC1 (configuration not stated),-3.26
9,Cc1nc(CN2C[C@@H]3COC[C@]3(COCC(=O)N(C)C)C2)cs1,-5.31
10,Cc1cnn(CC(C)NCc2cccnc2)c1 (configuration not stated),-5.07
11,O=C(NCCc1ccccn1)[C@@]12CCO[C@@H]1CCN(C1CCC1)C2,-6.9
12,COc1c(CNC2CCc3c(Cl)cccc32)c(C)nn1C (configuration not stated),-12.4
13,CC(=O)Nc1ccc(CNCc2ccc(CS(C)(=O)=O)cc2)cc1,15.3
14,CSc1cccc(CN(C)C(=O)C2CC(=O)N(CCN(C)C)C2)c1 (configuration not stated),5.8
15,Cc1ccc(NC(=O)C2CCCN2C(=O)C2CC2)nc1 (configuration not stated),-3.51
16,Cc1cc(CN2CCN(C(C)c3nc(C4CC4)no3)CC2)no1 (configuration not stated),-4.52
17,CN(C)C[C@@H]1CN(C(=O)c2cc(S(N)(=O)=O)ccc2F)C[C@@H]1CO,-4.5
18,CC(=O)N1CCOC(c2cncc(CCC(=O)N(C)C)n2)C1 (configuration not stated),5
19,COc1cc(Oc2ccc(C(F)(F)F)cn2)ccc1CN1CCCC1,-10.7
20,O=c1c2ccc(Cl)cc2ncn1CCCN1CCCCC1CO (configuration not stated),-15.5
21,CN1CCN(CC2CC2)C(=O)c2cnc(N3CCC(CO)CC3)nc21,-4.14
22,CC(NCCNS(=O)(=O)c1cccc(Cl)c1)C1CCOCC1 (configuration not stated),-6.77
23,CCc1ocnc1C(=O)N1CCOC(c2nc(C(C)C)n[nH]2)C1 (configuration not stated),-10.4

row,SMILES,cytotoxicity at 70.5 h [%]
1,CC(C)Nc1ncccc1C(=O)NCc1ncc[nH]1,-1.28
2,c1ccc(OCCNC2CCN(c3ncccn3)CC2)cc1,2.01
3,CCS(=O)(=O)N1C[C@H]2CN(Cc3ccc(OC)cc3)C(=O)[C@H]2C1,-10.9
4,COc1ccc(C2OC(COc3ccccc3Br)=NN2C(C)=O)cc1 (configuration not stated),-6.79
5,CNC(=O)c1ccc(C(=O)N2CCCC(n3ccnc3C)C2)cn1 (configuration not stated),-3.51
6,Cc1occc(=O)c1OCc1noc(C(=O)NC(C)C)n1,-15.1
7,Cc1cnc(C(=O)N2C[C@H]3CN(Cc4cccs4)C[C@H]3C2)cn1,8.68
8,c1cnn(CC2CN(Cc3noc(C4CC4)n3)CCO2)c1 (configuration not stated),-0.284
9,CCC(CO)NC(=O)NCc1cc(C#N)ccc1F (configuration not stated),-9.99
10,CNc1ncc2c(n1)CN(Cc1ccc(Cl)cc1)C2=O,-9.81
11,CN(Cc1ccncc1)CC(c1cccs1)N1CCOCC1 (configuration not stated),36
12,COc1ccc(-n2c(COC(C)C)n[nH]c2=O)cc1,-6.26
13,CC(C)CN1CC(C(=O)NCCOc2ccc3c(c2)OCO3)CC1=O (configuration not stated),3.51
14,CC(C)n1nc2c(cc1=O)CN(Cc1ccc(-n3cccn3)cc1)CC2,24.1
15,O=C(O)c1cccn1-c1ccc2c(c1)OCCO2,-9.54
16,Cc1ccc2nc(C(=O)N3C[C@@H](C(=O)O)[C@H](c4cccnc4)C3)cn2c1,-5.46
17,COCCCNC(=O)c1cc(-c2cnc(N(C)C)nc2)cn1CC1CC1,-6.95
18,Cc1cc(CN2C[C@@H]3COC[C@]3(CN(C)C)C2)no1,-6.11
19,c1cncc(OC2CCN(CCn3cc4ccccc4n3)CC2)c1,-25.2
20,CCc1noc(CN2CCN(C(=O)c3ccccc3F)CC2)n1,29.8
